9 compounds from US12570627B2, “Pharmaceutical composition in which production of impurities is suppressed” (Shionogi & Co., Ltd., priority 2020, dated 2026) can be followed below.

“And” between values parts separate entries of the source, which are not always exact repeats. Equal values may be shown once.

Common to all, as to format: physicochemical
The nature of data set [1]: 90% particle size distribution, laser diffraction HELOS & RODOS (Test Example 2). The note with it: dispersion pressure 4 bar. The procedure:
A 90% particle size distribution in the production method of Reference Example 1 was determined by the following method.
In Examples 1 to 6 and Reference Example 3, the 90% particle size distribution was determined in the same manner.
A 90% particle size distribution was measured according to the following method and conditions. • Measuring instrument: laser diffraction particle size distribution measuring apparatus (HELOS & RODOS, Sympatec GmbH) • Dispersion pressure: 4 bar • Feed: 50% • Rotation: 20% • Focal length: 50 mm • Trigger condition: reference duration 2 seconds • Time Base 100 ms • Start Optical concentration ≥1.0% • Stop Optical concentration ≤1.0% • Measurement range: R2

Data set [2] is described as follows: Measurement of content ratio of compound represented by Formula (III) contained in crystal (Test Example 1). The note with it: crystal as produced. The procedure:
The content ratio of the compound represented by Formula (III) in the dihydrate crystal of the compound represented by Formula (I) produced in Example L was determined by the following method.
In Examples 1 to 4 and 6 and Reference Examples 1 to 2, the content ratio was determined in the same manner.
(§1) A standard sample of the compound represented by Formula (III) was prepared by the following method, • Step 1: About 25 µg of the compound represented by Formula (III) was weighed precisely, and dissolved in a mixed solution of N,N-dimethylformamide and water (9:1) to make exactly 20 mL, • Step 2: One milliliter of the solution of Step 1 was accurately taken, and a mixed solution of N,N-dimethylformamide and water (9:1) was added to make exactly 50 mL. • Step 3: Two milliliters of the solution of Step 2 was accurately taken, and a mixed solution of N,N-dimethylformamide and water (9:1) was added to make exactly 20 mL, thereby obtaining a standard solution. (Preparation of Sample Solution)
(§2) About 125 to 600 mg of a sample was weighed precisely, and dissolved by adding a mixed solution of N,N-dimethylformamide and water (9:1) to make exactly 5 mL.
(§3) An amount of the compound represented by Formula (III) was measured with a liquid chromatograph according to the following method and conditions. • Measuring instrument: UHPLC (NexeraX2, SHIMADZU) • Detector: UV • Measurement wavelength: 271 nm • Column: ACQUITY UPLC BEH SHIELD PR18, 1.7 μm (2.1×100 mm) • Column temperature: constant temperature at near 40° C. • Mobile phase A: 20 mmol/L potassium dihydrogen phosphate aqueous solution • Mobile phase B: acetonitrile for liquid chromatography • Feed of mobile phase: The mixing ratio of mobile phase A and mobile phase B was changed as shown in Table 1 to control concentration gradient.
(§4) • Flow rate: 0.3 mL/min • Injection amount 2 μL • Sample cooler temperature: 5° C. • Area measurement range: 11 minutes after injection • Needle washing solution: mixed solution of N,N-dimethylformamide and water (9:1) (Calculation Formula) Content (ppm) of compound represented by Formula(III)=MS/MT×AT/AS×1/2000×1000000 (Mathematical formula 4) • MS: Weighing amount (mg) of compound represented by Formula (III) • MT: Weighing amount (mg) of sample • AS: Peak area of compound represented by Formula (III) obtained from standard solution • AT: Peak area of compound represented by Formula (III) obtained from sample solution • 1/2000: Dilution ratio

Data set [3] is described as follows: Measurement of content ratio of compound represented by Formula (III) contained in solution; increase during crystallization operation (Test Example 3). The note with it: for Total amount of the content ratio of compound represented by Formula (III) contained in the filtrate after filtration and the obtained crystal: after crystallization; for Content ratio of compound represented by Formula (III) in the solution before crystallization: reaction solution / dissolved anhydrate crystal; for Increased amount of content ratio of compound represented by Formula (III) during crystallization operation: total in filtrate and crystal minus solution before crystallization. The procedure: The content ratio of the compound represented by Formula (JII) in the solution in the production method of Example 1 was determined by the following method.
In Example 4 and Reference Examples 2 to 3, the content ratio was determined in the same manner.
as §1, with “the following method. • Step” for “the following method, • Step”, “About 25 mg of the” for “About 25 µg of the”, “exactly 20 mL. • Step” for “exactly 20 mL, • Step”, “exactly 20 ml, thereby obtaining” for “exactly 20 mL, thereby obtaining”
About 60 to 1300 mg of a sample was weighed precisely, and dissolved by adding a mixed solution of N,N-dimethylformamide and water (9:1) to make exactly 5 mL.
as §3, with “SHIELD PF18,” for “SHIELD PR18,”, “Table 2” for “Table 1”
• Flow rate: 0.3 mL/min • Injection amount: 2 μL • Sample cooler temperature: 5° C. • Area measurement range: 11 minutes after injection • Needle washing solution: mixed solution of N,N-dimethylformamide and water (9:1) (Calculation formula) Content (ppm) of compound represented by Formula(III)=MS/MT×AT/AS×1/2000×YT/YS×1000000 (Mathematical formula 3) • MS: Weighing amount (mg) of compound represented by Formula (III) • MT: Weighing amount (mag) of sample • AS: Peak area of compound represented by Formula (III) obtained from standard solution • AT: Peak area of compound represented by Formula (III) obtained from sample solution • YS: Yield (g) of compound represented by Formula (I) • YT: Total weight (g) of sample • 1/2000: Dilution ratio

Data set [4] can be described thus: Stability testing of crystal (Test Example 4). Particulars: for Content ratio of compound represented by Formula (III), 1M: protect from light, double polyethylene bag with desiccant, metal can. The procedure: as §1, §2, §3, §4
The samples obtained in Example 1 and Reference Example 1 were subjected to a stability testing to evaluate the content of the compound represented by Formula (III).
The storage conditions and the packaging form of Example 1 are shown in Table 3, and the storage conditions and the packaging form of Reference Example 1 are shown in Table 4.
Samples were placed in a polyethylene bag (Suntec-LD M2206 (additive free) 100×210×0.1 mm, TOWA KAKO CO., LTD.) and tightened with Convex (CV100N, SHIBAKEISOZAI CO., LTD.). This bag was further placed in a polyethylene (Suntec-LD M2206 (additive free) 100×210×0.1 mm, TOWA KAKO CO., LTD.) bag and similarly tightened with Convex (CV100N, SHIBAKEISOZAI CO., LTD.). The above samples under the same storage conditions were put together in a metal can (3dia, a stainless steel can with an inner diameter of 16 cm and a depth of 18 cm). • Double polyethylene bag, Convex (containing desiccant), metal can:
Samples were placed in a polyethylene bag (Suntec-LD M2206 (additive free) 100×210×0.1 mm, TOWA KAKO CO., LTD.) and tightened with Convex (CV100N, SHIBAKEISOZAI CO., LTD.). This bag was further placed in a polyethylene bag (Suntec-LD M2206 (additive free) 100×210×0.1 mm, TOWA KAKO) CO., LTD.) and similarly tightened with Convex (CV100N, SHIBAKEISOZAI CO., LTD.). The samples under the same storage conditions were put together in a metal can (3dia, a stainless steel can with an inner diameter of 16 cm and a depth of 18 cm) containing silica gel (using raw materials manufactured by Fuji Silysia Chemical Ltd., contained in 1 g bag).
The content of the compound represented by Formula (III) was confirmed in the same manner as in Test Example 1.

For `C[C@@H](Cn1c(=O)[nH]/c(=N\c2ccc(Oc3ccccn3)cc2)n(Cc2ccc(Cl)cc2)c1=O)C(=O)O` [Example 2], the “90% particle size distribution” value in data set [1] stood at 7.17 μm. The “Content ratio of compound represented by Formula (III) in the obtained crystal” value (from here on “Content ratio … in the obtained crystal”) in data set [2] was determined as 1.0 ppm.
`C[C@@H](Cn1c(=O)[nH]/c(=N\c2ccc(Oc3ccccn3)cc2)n(Cc2ccc(Cl)cc2)c1=O)C(=O)O` [Example L]: the “Content ratio … in the obtained crystal” value in data set [2] was “not detected”; in data set [2] (listed as dihydrate crystal of the compound represented by Formula (I)), “not contained or is below a detection limit”.
As for `C[C@@H](Cn1c(=O)[nH]/c(=N\c2ccc(Oc3ccccn3)cc2)n(Cc2ccc(Cl)cc2)c1=O)C(=O)O` [Reference Example 2], in data set [3], the “Total amount of the content ratio of compound represented by Formula (III) contained in the filtrate after filtration and the obtained crystal” value was 316.7 ppm; the “Content ratio of compound represented by Formula (III) in the solution before crystallization” value is 178.9 ppm. In data set [2], the “Content ratio … in the obtained crystal” value is 1.3 ppm and 1.30 ppm.
With `C[C@@H](Cn1c(=O)[nH]/c(=N\c2ccc(Oc3ccccn3)cc2)n(Cc2ccc(Cl)cc2)c1=O)C(=O)O` [Example 3], the “90% particle size distribution” value in data set [1] turned out to be 6.48 μm. Moreover, the “Content ratio … in the obtained crystal” value in data set [2] was 1.5 ppm.
In the case of `C[C@@H](Cn1c(=O)[nH]/c(=N\c2ccc(Oc3ccccn3)cc2)n(Cc2ccc(Cl)cc2)c1=O)C(=O)O` [Reference Example 1], in data set [1], the “90% particle size distribution” value is 14.53 μm. In addition, the “Increased amount of compound represented by Formula (III) from the start of the test” value in data set [4] (40±2° C./75±5% RH, 1 month) is 12 ppm; in data set [4] (40±2° C./75±5% RH, 3 months), 15 ppm. The “Content ratio of compound represented by Formula (III), 3M” value is on record as 18 ppm in data set [4] (40±2° C./75±5% RH, 3 months) and 18 ppm in data set [4] (40 ± 2° C./75 ± 5% RH, 3 months, listed as Reference example 1). In addition, the “Content ratio of compound represented by Formula (III), 1M” value came to 15 ppm in data set [4] (40 ± 2° C./75 ± 5% RH, 1 month) and 15 ppm in data set [4] (40 ± 2° C./75 ± 5% RH, 1 month, listed as Reference example 1). In data set [4] (start of test), the “Content ratio of compound represented by Formula (III), Initial” value is reported as 3 ppm.
Turning to `C[C@@H](Cn1c(=O)[nH]/c(=N\c2ccc(Oc3ccccn3)cc2)n(Cc2ccc(Cl)cc2)c1=O)C(=O)O` [Reference Example 3], in data set [3], the “Total amount of the content ratio of compound represented by Formula (III) contained in the filtrate after filtration and the obtained crystal” value came out at 252.5 ppm; the “Content ratio of compound represented by Formula (III) in the solution before crystallization” value was 82.0 ppm; the “Increased amount of content ratio of compound represented by Formula (III) during crystallization operation” value amounted to 170.5 ppm. Moreover, in data set [1], the “90% particle size distribution” value is 169.84 μm.
For `C[C@@H](Cn1c(=O)[nH]/c(=N\c2ccc(Oc3ccccn3)cc2)n(Cc2ccc(Cl)cc2)c1=O)C(=O)O` [Example 4], the “Increased amount of content ratio of compound represented by Formula (III) during crystallization operation” value in data set [3] came out at 8.7 ppm. Further, the “Content ratio … in the obtained crystal” value in data set [2] was 1.30 ppm.
As for `C[C@@H](Cn1c(=O)[nH]/c(=N\c2ccc(Oc3ccccn3)cc2)n(Cc2ccc(Cl)cc2)c1=O)C(=O)O` [Example 5], the “90% particle size distribution” value in data set [1] was 27.57 μm.
With `C[C@@H](Cn1c(=O)[nH]/c(=N\c2ccc(Oc3ccccn3)cc2)n(Cc2ccc(Cl)cc2)c1=O)C(=O)O` [Example 6], the “90% particle size distribution” value in data set [1] worked out at 61.22 μm. Also, the “Content ratio … in the obtained crystal” value in data set [2] turned out to be 1.0 ppm.
